Measured values published in US6960590B2, “Orally active salts with tyrosine kinase activity” (Merck & Co. Inc., priority 2000, dated 2005).
Counter-ions that a name gives are not always drawn.

Legend:
Assay type in all cases: physicochemical
[1] = Measurement of salt solubility: salts of 1-11 formed in situ and suspended in water, HPLC (UV-Vis); conditions: for Solubility: free base plus 1.05-1.1 molar equivalence of acid, suspended in water for several days, method overestimates the solubility; for pH: pH in equilibrium with the solid phase of the salt suspended in water, most likely lower than pH of the salt in water
Procedure: The solid free base was treated with a concentrated solution of the appropriate acid (1.05-1.1 molar equivalence) and suspended in water for several days. The pH and concentration of the compound in equilibrium with the solid phase was measured by HPLC (UV-Vis detection). This method overestimates the solubility of the salt due to the 5-10% excess of the acid that is added in the preparation of the salts. For the same reason, the pH's that are obtained are most likely lower than the pH of the salt in water.

[2] = Solubility of isolated crystalline salts of 1-11 in water and organic solvents; conditions: for solubility at 7 days: thermodynamic from solid, RT for 7 days
Procedure: The amorphous mesylate salt was recrystallized from 50:50 Ethanol:THF to give a crystalline powder (Salt 1-11A). The X-ray powder diffraction pattern (XRPD) of the recrystallized mesylate salt 1-11A (FIG. 2) is indicative of crystalline material with multiple diffraction peaks between 5° and 30° 2-theta.
A second batch of crystalline mesylate salt (Salt 1-11B) was obtained by the following procdeure. To a stirred suspension of 1-11 (4.026 g, 9.22 mmol) in MeOH was slowly added at room temperature (RT) one equivalent of a 0.3M solution of methanesulfonic acid (30.73 mL). After all the solid had dissolved, the mixture was filtered into a flask and concentrated under reduced pressure while cooled to about 10° C. The resulting solid was suspended with 200 mL of ethylacetate, filtered, and dried to afford the mesylate salt. […] This crystalline form is different by XRPD than the one recrystallized from the amorphous salt in EtOH/THF (Salt 1-11A).
HCl salt 1-11D is also crystalline as witnessed by the X-ray powder diffraction pattern of the material, having multiple diffraction peaks between 5° and 30° 2-theta. […] (rate of 10° C./min). The compound is birefringent under plane polarized light. It is needle-shaped particles of approximately 5-25 micron. The solubility of salt 1-11D was measured in water and various organic solvents. Table VI below summarizes the solubility of the 1-11D suspended in various solvents for 7 days at room temperature.

[3] = Solubility of salts of 4-9 prepared in situ (pH and concentration by HPLC); conditions: for pH: pH of the liquid residue of the aqueous suspension; for Solubility: free base plus 1.05 mole equivalents of acid, suspended in 100 μL of water, rotated overnight, centrifuged
Excerpt: Two forms of the mesylate salt were made: Salt 4-9A above and Salt 4-9B below.

[4] = Solubility of free base 1-11 at room temperature in 0.05M aqueous buffers, water and organic solvents (HPLC)
Procedure: The solubility of 1-11 at room temperature was determined in 0.05M aqueous buffers, water and several organic solvents.

## CS(=O)(=O)N1CCN(Cc2ccc3[nH]c(-c4cc5ccccc5[nH]c4=O)cc3c2)CC1 [Besylate salt of 1-11, 3-[5-(4-Methanesulfonyl-piperazin-1-ylmethyl)-1H-indol-2-yl]-1H-quinolin-2-one]
[1]
  Solubility: 3.8 µg/mL
  pH: 2.4

## CS(=O)(=O)N1CCN(Cc2ccc3[nH]c(-c4cc5ccccc5[nH]c4=O)cc3c2)CC1 [Mesylate salt of 1-11, 3-[5-(4-Methanesulfonyl-piperazin-1-ylmethyl)-1H-indol-2-yl]-1H-quinolin-2-one]
[1]
  Solubility: 580 µg/mL
  pH: 2.3

## CS(=O)(=O)N1CCN(Cc2ccc3[nH]c(-c4cc5ccccc5[nH]c4=O)cc3c2)CC1 [Sulfate salt of 1-11, 3-[5-(4-Methanesulfonyl-piperazin-1-ylmethyl)-1H-indol-2-yl]-1H-quinolin-2-one]
[1]
  Solubility: 130 µg/mL
  pH: 1.5

## CS(=O)(=O)N1CCN(Cc2ccc3[nH]c(-c4cc5ccccc5[nH]c4=O)cc3c2)CC1 [Citrate salt of 1-11, 3-[5-(4-Methanesulfonyl-piperazin-1-ylmethyl)-1H-indol-2-yl]-1H-quinolin-2-one]
[1]
  Solubility: 110 µg/mL

## CS(=O)(=O)N1CCN(Cc2ccc3[nH]c(-c4cc5ccccc5[nH]c4=O)cc3c2)CC1 [Maleate salt of 1-11, 3-[5-(4-Methanesulfonyl-piperazin-1-ylmethyl)-1H-indol-2-yl]-1H-quinolin-2-one]
[1]
  Solubility: 160 µg/mL
  pH: 2.5

## CS(=O)(=O)N1CCN(Cc2ccc3[nH]c(-c4cc5ccccc5[nH]c4=O)cc3c2)CC1 [Salt 1-11B, 3-[5-(4-Methanesulfonyl-piperazin-1-ylmethyl)-1H-indol-2-yl]-1H-quinolin-2-one]
[2]; acetonitrile, organic solvent or mixture
  Solubility: 30 µg/mL

## CS(=O)(=O)N1CCN(Cc2ccc3[nH]c(-c4cc5ccccc5[nH]c4=O)cc3c2)CC1 [HBr salt of 1-11, 3-[5-(4-Methanesulfonyl-piperazin-1-ylmethyl)-1H-indol-2-yl]-1H-quinolin-2-one]
[1]
  Solubility: 200 µg/mL
  pH: 2.9

## COCCN(C)CCOc1ccc2[nH]c(-c3cc4ccccc4[nH]c3=O)cc2c1 [Tartrate salt of 4-9, 3-(5-{2-[(2-methoxyethyl)(methyl)amino]ethoxy}-1H-indol-2-yl)-2(1H)-quinolinone]
[3]
  pH: 3.23

## CS(=O)(=O)N1CCN(Cc2ccc3[nH]c(-c4cc5ccccc5[nH]c4=O)cc3c2)CC1 [Salt 1-11D, 3-[5-(4-Methanesulfonyl-piperazin-1-ylmethyl)-1H-indol-2-yl]-1H-quinolin-2-one]
[2]; aqueous ETOH, aqueous with cosolvent or surfactant or cyclodextrin
  solubility at 7 days: 4340 µg/mL
[2]; aqueous IPA, aqueous with cosolvent or surfactant or cyclodextrin
  solubility at 7 days: 3990 µg/mL
[2]; ethanol, organic solvent or mixture
  solubility at 7 days: 130 µg/mL
[2]; isopropanol, organic solvent or mixture
  solubility at 7 days: 57 µg/mL
[2]; water
  solubility at 7 days: 620 µg/mL

## COCCN(C)CCOc1ccc2[nH]c(-c3cc4ccccc4[nH]c3=O)cc2c1 [Mesylate 4-9B, 3-(5-{2-[(2-methoxyethyl)(methyl)amino]ethoxy}-1H-indol-2-yl)-2(1H)-quinolinone]
[3]
  Solubility: 22000 µg/mL

## CS(=O)(=O)N1CCN(Cc2ccc3[nH]c(-c4cc5ccccc5[nH]c4=O)cc3c2)CC1 [Salt 1-11, 3-[5-(4-Methanesulfonyl-piperazin-1-ylmethyl)-1H-indol-2-yl]-1H-quinolin-2-one]
[4]; 0.05M Carbonate, pH final 10.09, room temperature
  Solubility: 79 µg/mL
[4]; 0.05M Citrate, pH final 4.15, room temperature
  Solubility: 73 µg/mL
[4]; 0.05M Citrate, pH final 5.07, room temperature
  Solubility: 70 µg/mL
[4]; 0.05M Phosphate, pH final 7.93, room temperature
  Solubility: 74 µg/mL
[4]; 0.05M Phosphate, pH final 8.86, room temperature
  Solubility: 73 µg/mL

## COCCN(C)CCOc1ccc2[nH]c(-c3cc4ccccc4[nH]c3=O)cc2c1 [Sulfate salt of 4-9, 3-(5-{2-[(2-methoxyethyl)(methyl)amino]ethoxy}-1H-indol-2-yl)-2(1H)-quinolinone]
[3]
  pH: 1.40

## CS(=O)(=O)N1CCN(Cc2ccc3[nH]c(-c4cc5ccccc5[nH]c4=O)cc3c2)CC1 [Acetate salt of 1-11, 3-[5-(4-Methanesulfonyl-piperazin-1-ylmethyl)-1H-indol-2-yl]-1H-quinolin-2-one]
[1]
  Solubility: 91 µg/mL
  pH: 3.3

## COCCN(C)CCOc1ccc2[nH]c(-c3cc4ccccc4[nH]c3=O)cc2c1 [Citrate salt of 4-9, 3-(5-{2-[(2-methoxyethyl)(methyl)amino]ethoxy}-1H-indol-2-yl)-2(1H)-quinolinone]
[3]
  Solubility: 19800 µg/mL
  pH: 3.33

## CS(=O)(=O)N1CCN(Cc2ccc3[nH]c(-c4cc5ccccc5[nH]c4=O)cc3c2)CC1 [HCl salt of 1-11, 3-[5-(4-Methanesulfonyl-piperazin-1-ylmethyl)-1H-indol-2-yl]-1H-quinolin-2-one]
[1]
  Solubility: 430 µg/mL
  pH: 2.3
